# Laboratory results published in patent US8017584B2, “GD3-mimetic peptides” (Otsuka Pharmaceutical Co., Ltd., priority 2000, dated 2011).
# Assays:
# [1] = tested on: binding between GD3 and 4F6; assay: Inhibition by nine-residue MAPs of binding between GD3 and 4F6 (Example 5(5), FIG. 6); set-up: species or system mouse; conditions: nine-residue MAP compared with the 15 residues
# Description: Next, in an attempt to determine the domain required for establishing binding to anti-GD3 antibody 4F6 in GD3-mimetic peptides, an MAP of nine N-terminus residues of GD3R3 peptide and an MAP of nine C-terminus residues of the same GD3R3 peptide as shown in FIG. 2 were synthesized, their binding to 4F6 was studied by means of ELISA. ELISA was performed was performed in triplicate, and the values in the graphs are “mean ±SD.”
# [2] = tested on: T-cell-rich lymphocytes / IL-2-dependent CTLL2 cells; assay: Cell response test: IL-2 activity (3H thymidine up-take of CTLL2 cells) in supernatant of spleen cells of mice immunized with R4 peptide (R4-KLH); type: cell-based, mouse; conditions: mice immunized with R4 peptide
# Description: Using a fusion peptide R4-KLH obtained in Example 3 (4) between GD3R4 and KLH or a MAP form fusion peptide R4MAP-KLH created between GD3R4 and KLH, immunization was performed as described in (1) above.
# Briefly, an emulsion mixed with an adjuvant (1:1, by volume) was administered to each member of groups of mice, each group consisting of 3 mice (CD-1), in an amount of 100 μL/mouse (for one administration (ip), peptide 30 μg/mouse) for immunization. In the case of R4-KLH, administration was performed every one week for one month, and subsequently every two weeks for one month; and in the case of R4MAP-KLH, every one week for 2 months. In any case, 4 days after the final immunization, blood was collected to thereby prepare antiserum samples.
# (§1) The spleen aseptically removed from each of the above-immunized mice was minced in a 10% FCS-supplemented RPMI 1640 medium. By use of a nylon wool column, T-cell-rich lymphocytes were prepared and the cells were counted. The above medium containing the cells in an amount of 10^5 cells per 150 μL was added to each of the wells of a culture plate. PHA was added so as to attain a final concentration of 1 μg/mL. A peptide of the present invention or any of different gangliosides in PBS was added, and the mixture was incubated for 96 hours. A supernatant (100 μL) was obtained from each well. The IL-2 activity of the supernatant was determined through use of IL-2-dependent mouse cells, CTLL2. Briefly, the supernatant (100 μL) diluted 2 to 50-fold with a medium was added to the wells in an amount of 10^4 CTLL2 cells/well, followed by incubation at 37° C. for 48 hours. Subsequently, 3H-thymidine (0.5 μCi) was added to each well, followed by incubation for 6 hours. CTLL2 cells were recovered on a paper filter and counted for 3H.
# [3] = tested on: T-cell-rich lymphocytes / IL-2-dependent CTLL2 cells; assay: Cell response test: IL-2 activity (3H thymidine up-take of CTLL2 cells) in supernatant of spleen cells of mice immunized with GD3; type: cell-based, mouse; conditions: mice immunized with GD3
# Description: Similar to the case of immunization with R4-KLH, antiserum samples were also prepared through immunization with GD3 (30 μg).
# as §1
# [4] = tested on: binding between GD3 and 4F6; assay: Inhibition by exogenously added MAPs of binding between GD3 and 4F6 (Example 5(4), FIG. 5); set-up: species or system mouse
# Description: (4) Next, investigation was made as to whether binding between GD3R3 or GD3R4 and 4F6 occurred at the GD3 binding site of 4F6. To the wells of a plate to which GD3 had been immobilized (100 ng/well), each of the MAP samples having a variety of concentrations shown on the X-axis in FIG. 5 and 4F6 (100 μL/well) were simultaneously added, whereby an inhibitory test was performed. The test was performed in triplicate, and the values in the graph are “mean ±SD.”
# [5] = tested on: binding between GD3 and 4F6 (anti-GD3 antibody); assay: Inhibition by immobilized MAPs of binding between GD3 and 4F6 (Example 5(3), FIG. 4); set-up: species or system mouse; conditions: immobilized MAP or GD3 absorbs 4F6
# Description: (3) The binding affinity shown in FIG. 3 was investigated in another method. Briefly, MAP samples having a variety of concentrations shown on the X-axis in FIG. 4 were provided. Each sample was immobilized onto the wells of a 96-well plate, and the wells were allowed to react with 4F6 (100 μL/well) at 4° C. overnight. On the following day, the supernatant (80 μL) was collected and added to the wells of another plate to which GD3 had been immobilized in advance (100 ng/well) for reaction at room temperature for 2 hours. After completion of reaction, the amount of antibody 4F6 that had been condensed with GD3 (i.e., that had not been absorbed by MAP) was detected and quantitatively determined through the method described (2) above, whereby inhibitory effect of MAP on binding of GD3 to 4F6 was investigated. The test was performed in triplicate, and the values in the graph are “mean ±SD.”
# [6] = tested on: anti-GD3 antibody 4F6; assay: ELISA of MAPs immobilized at various amounts with 4F6 (Example 5(2), FIG. 3); type: binding, mouse; conditions: MAPs or GD3 immobilized at various amounts
# From the text: (1) In a manner similar to that described in Example 3, peptides of N-terminus 9 amino acid residues or C-terminus 9 amino acid residues of GD3R1, GD3R2, GD3R3, or GD3R4. The nomenclature and sequences of respective peptides employed in the present test are shown in FIG. 2 These were employed as multi-antigen peptides (MAPs). (2) In order to extend the research on bonding between the anti-GD3 antibody 4F6 and each of the GD3-mimetic peptides shown in FIG. 1, multi-antigen peptides (MAPs) were subjected to ELISA. MAP samples having a variety of concentrations shown on the X-axis in FIG. 3 were provided, and each sample was immobilized onto the wells of a 96-well plate. Subsequently, the wells were blocked with a blocking solution (TBS supplemented with 1% BSA, 0.1% skim milk, and 0.02% Tween 20) at 4° C. overnight. 4F6 (hybridoma supernatant: used in the neat form) was added (100 μL/well) for reaction at room temperature for 2 hours. After completion of reaction, the supernatant was discarded, and the wells were washed with a washing solution (TBS supplemented with 1% FBS and 0.05% Tween 20) six times. Subsequently, the wells were allowed to react with peroxidase-labeled anti-mouse IgG (diluted 1,000-fold with a blocking solution) at room temperature for 2 hours. The wells were again washed with a washing solution four times, and the amount of peroxidase enzyme remaining in each well was detected and quantitatively determined with the substrate TMB, whereby binding of MAP to 4F6 was investigated. The test was performed in triplicate, and the values in the graph are “mean ±SD.”
# [7] = PHA 1 μg/mL + stimulant 0.5 μg/ml, supernatant dilution ½
# [8] = stimulant 0.5 μg/ml, supernatant dilution 1/20
# [9] = stimulant 0.5 μg/ml, supernatant dilution 1/50
# [10] = stimulant 0.5 μg/ml, supernatant dilution ⅕
# [11] = stimulant 1 μg/ml, supernatant dilution 1/20
# [12] = stimulant 1 μg/ml, supernatant dilution 1/50
# [13] = stimulant 1 μg/ml, supernatant dilution ½
# [14] = stimulant 1 μg/ml, supernatant dilution ⅕
# [15] = stimulant 2 μg/ml, supernatant dilution 1/20
# [16] = stimulant 2 μg/ml, supernatant dilution 1/50
# [17] = stimulant 2 μg/ml, supernatant dilution ½
# [18] = stimulant 2 μg/ml, supernatant dilution ⅕
# [19] = stimulant 5 μg/ml, supernatant dilution 1/20
# [20] = stimulant 5 μg/ml, supernatant dilution 1/50
# [21] = stimulant 5 μg/ml, supernatant dilution ½
# [22] = stimulant 5 μg/ml, supernatant dilution ⅕
substance,measurement,setting,value
GD3R3C9: MAP of nine C-terminus residues of GD3R3 peptide (YAQRFFLLS),"ability to inhibit binding between GD3 and 4F6 (words, FIG. 6)",[1],comparable ability to the 15 residues
"NeuAc α2-8 NeuAc α2-3 Gal β1-4 Glc β1-1 Cer [GD3, reference compound]","3H Thymidine up-take into CTLL2 cells, mean ± SE (4 wells)",[2]; [7],2635 ± 308
same,"3H Thymidine up-take into CTLL2 cells, mean ± SE (4 wells)",[2]; [8],850 ± 87
same,"3H Thymidine up-take into CTLL2 cells, mean ± SE (4 wells)",[2]; [9],169 ± 25
same,"3H Thymidine up-take into CTLL2 cells, mean ± SE (4 wells)",[2]; [10],1792 ± 154
same,"3H Thymidine up-take into CTLL2 cells, mean ± SE (4 wells)",[2]; [11],794 ± 82
same,"3H Thymidine up-take into CTLL2 cells, mean ± SE (4 wells)",[2]; [12],202 ± 24
same,"3H Thymidine up-take into CTLL2 cells, mean ± SE (4 wells)",[2]; [13],2721 ± 284
same,"3H Thymidine up-take into CTLL2 cells, mean ± SE (4 wells)",[2]; [14],1658 ± 134
same,"3H Thymidine up-take into CTLL2 cells, mean ± SE (4 wells)",[2]; [15],809 ± 74
same,"3H Thymidine up-take into CTLL2 cells, mean ± SE (4 wells)",[2]; [16],212 ± 28
same,"3H Thymidine up-take into CTLL2 cells, mean ± SE (4 wells)",[2]; [17],2797 ± 295
same,"3H Thymidine up-take into CTLL2 cells, mean ± SE (4 wells)",[2]; [18],1722 ± 163
same,"3H Thymidine up-take into CTLL2 cells, mean ± SE (4 wells)",[2]; [19],764 ± 68
same,"3H Thymidine up-take into CTLL2 cells, mean ± SE (4 wells)",[2]; [20],184 ± 23
same,"3H Thymidine up-take into CTLL2 cells, mean ± SE (4 wells)",[2]; [21],2619 ± 316
same,"3H Thymidine up-take into CTLL2 cells, mean ± SE (4 wells)",[2]; [22],1636 ± 145
same,"3H Thymidine up-take into CTLL2 cells, mean ± SE (4 wells)",[3]; [7],2795 ± 175
same,"3H Thymidine up-take into CTLL2 cells, mean ± SE (4 wells)",[3]; [8],810 ± 72
same,"3H Thymidine up-take into CTLL2 cells, mean ± SE (4 wells)",[3]; [9],207 ± 22
same,"3H Thymidine up-take into CTLL2 cells, mean ± SE (4 wells)",[3]; [10],1876 ± 152
same,"3H Thymidine up-take into CTLL2 cells, mean ± SE (4 wells)",[3]; [11],762 ± 55
same,"3H Thymidine up-take into CTLL2 cells, mean ± SE (4 wells)",[3]; [12],186 ± 27
same,"3H Thymidine up-take into CTLL2 cells, mean ± SE (4 wells)",[3]; [13],2568 ± 235
same,"3H Thymidine up-take into CTLL2 cells, mean ± SE (4 wells)",[3]; [14],1834 ± 169
same,"3H Thymidine up-take into CTLL2 cells, mean ± SE (4 wells)",[3]; [15],758 ± 61
same,"3H Thymidine up-take into CTLL2 cells, mean ± SE (4 wells)",[3]; [16],197 ± 28
same,"3H Thymidine up-take into CTLL2 cells, mean ± SE (4 wells)",[3]; [17],2453 ± 264
same,"3H Thymidine up-take into CTLL2 cells, mean ± SE (4 wells)",[3]; [18],1901 ± 188
same,"3H Thymidine up-take into CTLL2 cells, mean ± SE (4 wells)",[3]; [19],794 ± 68
same,"3H Thymidine up-take into CTLL2 cells, mean ± SE (4 wells)",[3]; [20],179 ± 23
same,"3H Thymidine up-take into CTLL2 cells, mean ± SE (4 wells)",[3]; [21],2656 ± 257
same,"3H Thymidine up-take into CTLL2 cells, mean ± SE (4 wells)",[3]; [22],1857 ± 185
same,"inhibitory effect of exogenously added sample on binding between GD3 and 4F6 (words, FIG. 5)",[4]; added simultaneously with 4F6 to GD3 100 ng/well,exhibited inhibitory effect
same,order of binding strength to 4F6,[4]; deduced from FIG. 5,GD3>GD3R3>GD3R4
same,"inhibition of GD3 binding to 4F6 by immobilized sample (words, FIG. 4)",[5],inhibit GD3 from binding to the antibody
same,"binding of 4F6 to immobilized sample (words, FIG. 3)",[6],declined from the concentration 0.8 μg/well and higher
